# Results reported in patent US10543212B2, “Substituted amines for treating cardiac diseases” (Cardurion Pharmaceuticals, LLC, priority 2017, dated 2020).
# Target: T1, Full-length, GST-tagged, human CaMKIIδ (Homo sapiens, UniProt Q13557)
# T1 construct: Full-Length, Glutathione-S-Transferase(GST)-Tagged, Human CaMKIIδ was purchased from Carna Biosciences; purchased Carna Biosciences 02-111
# Experiment: CaMKIIδ binding assay (TR-FRET with BODIPY-labeled probe ligand)
# Conditions: CaMKIIδ binding assay, results of Table 2
# Method in brief: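 Compounds were tested as 4-fold, eight-point series for 1 hr at room temperature, and IC50 was obtained by logistic fitting against a 3 μM parent-compound control. Signal came from displacement of a 300 nM BODIPY ligand from 0.5 nM GST-CaMKIIδ, detected via Tb-anti-GST in calmodulin/Ca2+ (pH 7.6).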
# T1 sequence (Q13557 1-478 isoform Q13557-12): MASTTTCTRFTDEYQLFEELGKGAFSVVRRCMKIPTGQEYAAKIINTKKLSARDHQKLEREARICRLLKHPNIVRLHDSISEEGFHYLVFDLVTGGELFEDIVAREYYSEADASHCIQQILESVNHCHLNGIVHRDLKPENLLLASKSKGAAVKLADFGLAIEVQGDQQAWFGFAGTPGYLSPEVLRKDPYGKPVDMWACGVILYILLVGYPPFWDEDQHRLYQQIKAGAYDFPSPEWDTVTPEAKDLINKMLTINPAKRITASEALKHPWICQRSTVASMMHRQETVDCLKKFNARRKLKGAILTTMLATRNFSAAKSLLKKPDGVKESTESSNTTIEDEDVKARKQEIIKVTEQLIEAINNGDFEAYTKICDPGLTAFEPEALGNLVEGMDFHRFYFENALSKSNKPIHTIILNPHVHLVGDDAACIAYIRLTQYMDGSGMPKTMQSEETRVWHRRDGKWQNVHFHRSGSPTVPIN
row,SMILES,IC50
1,"C[C@@H](Cn1cnnn1)Oc1cc(-c2cnc(Nc3cn(C4CCN(Cc5cccn5C)CC4)nc3C(F)(F)F)nc2)ccc1Cl [Example 566, (S)-5-(3-((1-(1H-tetrazol-1-yl)propan-2-yl)oxy)-4-chlorophenyl)-N-(1-(1-((1-methyl-1H-pyrrol-2-yl)methyl)piperidin-4-yl)-3-(trifluoromethyl)-1H-pyrazol-4-yl)pyrimidin-2-amine]",< 10 nM
2,"COCC(C)N1CCC(n2cc(Nc3ncc(-c4ccc(Cl)c(O[C@@H](C)Cn5cnnn5)c4)cn3)c(C(F)(F)F)n2)CC1 (stereo partly drawn) [Example 553, 5-(3-(((S)-1-(1H-tetrazol-1-yl)propan-2-yl)oxy)-4-chlorophenyl)-N-(1-(1-(1-methoxypropan-2-yl)piperidin-4-yl)-3-(trifluoromethyl)-1H-pyrazol-4-yl)pyrimidin-2-amine]",< 10 nM
3,"C[C@@H](Cn1cnnn1)Oc1cc(-c2cnc(Nc3cn(C4CCN(C5CCN(C6CC6)CC5)CC4)nc3C(F)(F)F)nc2)ccc1Cl [Example 558, (S)-5-(3-((1-(1H-tetrazol-1-yl)propan-2-yl)oxy)-4-chlorophenyl)-N-(1-(1′-cyclopropyl-[1,4′-bipiperidin]-4-yl)-3-(trifluoromethyl)-1H-pyrazol-4-yl)pyrimidin-2-amine]",< 10 nM
4,"COc1cc(C2=CCN(C3COC3)CC2)c(C)cc1Nc1ncc(-c2ccc(C#N)c(O[C@@H](C)Cn3cnnn3)c2)cn1 [Example 530, (S)-2-((1-(1H-tetrazol-1-yl)propan-2-yl)oxy)-4-(2-((2-methoxy-5-methyl-4-(1-(oxetan-3-yl)-1,2,3,6-tetrahydropyridin-4-yl)phenyl)amino)pyrimidin-5-yl)benzonitrile]",< 10 nM
5,"COc1cc(N2CCC(N3CCOCC3)CC2)ccc1Nc1ncc(-c2cc(O[C@@H](C)Cn3cnnn3)c(Cl)cn2)cn1 [Example 534, (S)-5-(4-((1-(1H-tetrazol-1-yl)propan-2-yl)oxy)-5-chloropyridin-2-yl)-N-(2-methoxy-4-(4-morpholinopiperidin-1-yl)phenyl)pyrimidin-2-amine]",≥ 100 nM
6,"C[C@@H](Cn1cnnn1)Oc1cc(-c2cnc(Nc3cn(C4CCN(C5CCOCC5)CC4)nc3C3CC3)nc2)ccc1C#N [Example 546, (S)-2-((1-(1H-tetrazol-1-yl)propan-2-yl)oxy)-4-(2-((3-cyclopropyl-1-(1-(tetrahydro-2H-pyran-4-yl)piperidin-4-yl)-1H-pyrazol-4-yl)amino)pyrimidin-5-yl)benzonitrile]",< 10 nM
7,"COc1cc2c(cc1Nc1ncc(-c3ccc(Cl)c(O[C@@H](C)Cn4cnnn4)c3)cn1)CCN(C1CCOCC1)C2 [Example 474, (S)-N-(5-(3-((1-(1H-tetrazol-1-yl)propan-2-yl)oxy)-4-chlorophenyl)pyrimidin-2-yl)-7-methoxy-2-(tetrahydro-2H-pyran-4-yl)-1,2,3,4-tetrahydroisoquinolin-6-amine]",< 10 nM
8,"COc1cc(C)c(C(=O)N2CCOCC2)cc1Nc1ncc(-c2ccc(C#N)c(O[C@@H](C)Cn3cnnn3)c2)cn1 [Example 440, (S)-2-((1-(1H-tetrazol-1-yl)propan-2-yl)oxy)-4-(2-((2-methoxy-4-methyl-5-(morpholine-4-carbonyl)phenyl)amino)pyrimidin-5-yl)benzonitrile]",< 10 nM
9,"COc1cc2c(cc1Nc1ncc(-c3ccc(Cl)c(O[C@@H](C)Cn4cnnn4)c3)cn1)CN(C(=O)C(C)(C)O)CC2 [Example 521, (S)-1-(7-((5-(3-((1-(1H-tetrazol-1-yl)propan-2-yl)oxy)-4-chlorophenyl)pyrimidin-2-yl)amino)-6-methoxy-3,4-dihydroisoquinolin-2(1H)-yl)-2-hydroxy-2-methylpropan-1-one]",10 to 100 nM

# Same assay, conditions: CaMKIIδ binding assay; activity class per Table 2
row,SMILES,IC50
1,"C[C@@H](Cn1cnnn1)Oc1cc(-c2cnc(Nc3cn(C4CC5(CNC5)C4)nc3OCC(F)(F)F)nc2)ccc1Cl [Example 925, (S)-5-(3-((1-(1H-tetrazol-1-yl)propan-2-yl)oxy)-4-chlorophenyl)-N-(1-(2-azaspiro[3.3]heptan-6-yl)-3-(2,2,2-trifluoroethoxy)-1H-pyrazol-4-yl)pyrimidin-2-amine]",< 10 nM
2,"C[C@@H](Cn1cnnn1)Oc1cc(-c2cnc(Nc3cn(C4CC5(CNC5)C4)nc3OCC(F)(F)F)nc2)ccc1C(F)F [Example 949, (S)-5-(3-((1-(1H-tetrazol-1-yl)propan-2-yl)oxy)-4-(difluoromethyl)phenyl)-N-(1-(2-azaspiro[3.3]heptan-6-yl)-3-(2,2,2-trifluoroethoxy)-1H-pyrazol-4-yl)pyrimidin-2-amine]",< 10 nM
3,"C[C@@H](Cn1cnnn1)Oc1cc(-c2cnc(Nc3cn(C4CC5(C4)CN(C4(C)CCOC4)C5)nc3OCC(F)(F)F)nc2)ccc1Cl (stereo partly drawn) [Example 954, 5-(3-(((S)-1-(1H-tetrazol-1-yl)propan-2-yl)oxy)-4-chlorophenyl)-N-(1-(2-(3-methyltetrahydrofuran-3-yl)-2-azaspiro[3.3]heptan-6-yl)-3-(2,2,2-trifluoroethoxy)-1H-pyrazol-4-yl)pyrimidin-2-amine]",< 10 nM
4,"CC(C)c1nn(C2CC3(C2)CN(CC(C)(C)O)C3)cc1Nc1ncc(-c2ccc(Cl)c(O[C@@H](C)Cn3cnnn3)c2)cn1 [Example 947, (S)-1-(6-(4-((5-(3-((1-(1H-tetrazol-1-yl)propan-2-yl)oxy)-4-chlorophenyl)pyrimidin-2-yl)amino)-3-isopropyl-1H-pyrazol-1-yl)-2-azaspiro[3.3]heptan-2-yl)-2-methylpropan-2-ol]",< 10 nM
5,"C[C@@H](Cn1cnnn1)Oc1cc(-c2cnc(Nc3cn([C@@H]4CN(C5CCC5)CC[C@H]4O)nc3C(F)(F)F)nc2)ccc1Cl (mixture of isomers) [Example 904, trans-3-(4-((5-(3-(((S)-1-(1H-tetrazol-1-yl)propan-2-yl)oxy)-4-chlorophenyl)pyrimidin-2-yl)amino)-3-(trifluoromethyl)-1H-pyrazol-1-yl)-1-cyclobutylpiperidin-4-ol]",< 10 nM
6,"C[C@@H](Cn1cnnn1)Oc1cc(-c2cnc(Nc3cn(C4CC5(C4)CN(Cc4ncccn4)C5)nc3OCC(F)(F)F)nc2)ccc1Cl [Example 984, (S)-5-(3-((1-(1H-tetrazol-1-yl)propan-2-yl)oxy)-4-chlorophenyl)-N-(1-(2-(pyrimidin-2-ylmethyl)-2-azaspiro[3.3]heptan-6-yl)-3-(2,2,2-trifluoroethoxy)-1H-pyrazol-4-yl)pyrimidin-2-amine]",< 10 nM

# Same assay, conditions: Table 2; CaMKIIδ binding assay, activity given as class A/B/C
row,SMILES,IC50
1,"C[C@@H](Cn1cnnn1)Oc1cc(-c2cnc(Nc3cn(C4CCCCNC4=O)nc3OCC(F)(F)F)nc2)ccc1Cl (stereo partly drawn) [Example 777, 3-(4-((5-(3-(((S)-1-(1H-tetrazol-1-yl)propan-2-yl)oxy)-4-chlorophenyl)pyrimidin-2-yl)amino)-3-(2,2,2-trifluoroethoxy)-1H-pyrazol-1-yl)azepan-2-one]",< 10 nM
2,"C[C@@H](Cn1cnnn1)Oc1cc(-c2cnc(Nc3cn([C@H]4CC[C@H](N5CCC5)CC4)nc3C(F)(F)F)nc2)ccc1Cl [Example 779, 5-(3-(((S)-1-(1H-tetrazol-1-yl)propan-2-yl)oxy)-4-chlorophenyl)-N-(1-(trans-4-(azetidin-1-yl)cyclohexyl)-3-(trifluoromethyl)-1H-pyrazol-4-yl)pyrimidin-2-amine]",< 10 nM
3,"Cc1cc(Nc2ncc(-c3ccc(Cl)c(O[C@@H](C)Cn4cnnn4)c3)cn2)n(C)n1 [Example 751, (S)-5-(3-((1-(1H-tetrazol-1-yl)propan-2-yl)oxy)-4-chlorophenyl)-N-(1,3-dimethyl-1H-pyrazol-5-yl)pyrimidin-2-amine]",10 to 100 nM
4,"C[C@@H](Cn1cnnn1)Oc1cc(-c2cnc(Nc3cc(N4CC(CN5CCOCC5)C4)ccc3F)nc2)ccc1C#N [Example 762, (S)-2-((1-(1H-tetrazol-1-yl)propan-2-yl)oxy)-4-(2-((2-fluoro-5-(3-(morpholinomethyl)azetidin-1-yl)phenyl)amino)pyrimidin-5-yl)benzonitrile]",< 10 nM
5,"C[C@@H](Cn1cnnn1)Oc1cc(-c2cnc(Nc3cn([C@H]4CC[C@H](N5CC6(COC6)C5)CC4)nc3OCC(F)F)nc2)ccc1Cl [Example 827, 5-(3-(((S)-1-(1H-tetrazol-1-yl)propan-2-yl)oxy)-4-chlorophenyl)-N-(1-(trans-4-(2-oxa-6-azaspiro[3.3]heptan-6-yl)cyclohexyl)-3-(2,2-difluoroethoxy)-1H-pyrazol-4-yl)pyrimidin-2-amine]",< 10 nM
6,"C[C@@H](Cn1cc(F)cn1)Oc1cc(-c2cnc(Nc3cn(C4CCN(C5CCOCC5)CC4)nc3OCC(F)(F)F)nc2)ccc1C#N [Example 819, (S)-2-((1-(4-fluoro-1H-pyrazol-1-yl)propan-2-yl)oxy)-4-(2-((1-(1-(tetrahydro-2H-pyran-4-yl)piperidin-4-yl)-3-(2,2,2-trifluoroethoxy)-1H-pyrazol-4-yl)amino)pyrimidin-5-yl)benzonitrile]",10 to 100 nM

# Same assay, conditions: Table 2; activity class for CaMKIIδ
row,SMILES,IC50
1,"C[C@@H](Cn1cnnn1)Oc1cc(-c2cnc(Nc3cn([C@@H]4Cc5ccccc5[C@@H]4O)nc3C(F)(F)F)nc2)ccc1Cl [Example 721, (1S,2R)-2-(4-((5-(3-(((S)-1-(1H-tetrazol-1-yl)propan-2-yl)oxy)-4-chlorophenyl)pyrimidin-2-yl)amino)-3-(trifluoromethyl)-1H-pyrazol-1-yl)-2,3-dihydro-1H-inden-1-ol]",10 to 100 nM
2,"C[C@@H](Cn1cnnn1)Oc1cc(-c2cnc(Nc3c[nH]nc3C(F)(F)F)nc2)ccc1Cl [Example 628, (S)-5-(3-((1-(1H-tetrazol-1-yl)propan-2-yl)oxy)-4-chlorophenyl)-N-(3-(trifluoromethyl)-1H-pyrazol-4-yl)pyrimidin-2-amine]",10 to 100 nM
3,"C[C@@H](Cn1cnnn1)Oc1cc(-c2cnc(Nc3cc(N4CC(N5CCOCC5)C4)ncc3OC(F)(F)F)nc2)ccc1Cl [Example 627, (S)-5-(3-((1-(1H-tetrazol-1-yl)propan-2-yl)oxy)-4-chlorophenyl)-N-(2-(3-morpholinoazetidin-1-yl)-5-(trifluoromethoxy)pyridin-4-yl)pyrimidin-2-amine]",10 to 100 nM
